The assay deals with T1, human histamine H4 receptor (Homo sapiens, UniProt Q9H3N8).
T1 construct: expressed in transfected cells; host or cells: SK-N-MC cells or COS7 cells, transient transfection with pH4R; cell membranes
Kind of assay: Binding Assay on Recombinant Human Histamine H4 Receptor. The following applies: competition binding with 3H-histamine (5 nM; KD 5 nM), membranes of SK-N-MC or COS7 cells expressing human H4 receptor; average of results; > = highest value tested. The procedure: Biological Methods: Binding Assay on Recombinant Human Histamine H4 Receptor
SK-N-MC cells or COS7 cells were transiently transfected with pH4R and grown in 150 cm^2 tissue culture dishes. Cells were washed with saline solution, scraped with a cell scraper and collected by centrifugation (1000 rpm, 5 min). Cell membranes were prepared by homogenization of the cell pellet in 20 mM Tris-HCl with a polytron tissue homogenizer for 10 sec at high speed. Homogenate was centrifuged at 1000 rpm for 5 min at 4° C. The supernatant was then collected and centrifuged at 20,000×g for 25 min at 4° C. The final pellet was resuspended in 50 mM Tris-HCl. Cell membranes were incubated with ^3H-histamine (5-70 nM) in the presence or absence of excess histamine (10,000 nM). Incubation occurred at room temperature for […]. Membranes were harvested by rapid filtration over Whatman GF/C filters and washed 4 times with ice-cold 50 mM Tris HCl. Filters were then dried, mixed with scintillant and counted for radioactivity. SK-N-MC or COS7 cells expressing human histamine H4 receptor were used to measure the affinity of binding of other compounds and their ability to displace ^3H-ligand binding by incubating the above-described reaction in the presence of various concentrations of inhibitor or compound to be tested. For competition binding studies using ^3H-histamine, Ki values were calculated, based on an experimentally determined KD value of 5 nM and a ligand concentration of 5 nM, according to Y.-C.

pKi: −log10 of the molar value.

The values below come from US8084466B2, “Bicyclic heteroaryl-substituted imidazoles as modulators of the histamine H4 receptor” (Janssen Pharmaceutica NV, priority 2007, dated 2011).

T1 sequence (Q9H3N8 whole entry): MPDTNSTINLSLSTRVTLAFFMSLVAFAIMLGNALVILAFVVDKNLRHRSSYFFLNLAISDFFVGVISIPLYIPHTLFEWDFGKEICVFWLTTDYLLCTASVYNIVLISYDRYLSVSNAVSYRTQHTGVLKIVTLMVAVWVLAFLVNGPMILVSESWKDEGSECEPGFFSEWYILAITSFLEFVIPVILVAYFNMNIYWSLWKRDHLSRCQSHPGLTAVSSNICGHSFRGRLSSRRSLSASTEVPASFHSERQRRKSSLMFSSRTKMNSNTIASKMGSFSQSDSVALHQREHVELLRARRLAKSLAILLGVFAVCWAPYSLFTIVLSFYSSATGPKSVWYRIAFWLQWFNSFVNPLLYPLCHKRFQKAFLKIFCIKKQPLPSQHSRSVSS

Regarding `Cc1c(F)ccc2[nH]c(-c3ccc4c(ccn4CCCN4CCNCC4)c3)nc12` [Example 33, 5-Fluoro-4-methyl-2-[1-(3-piperazin-1-yl-propyl)-1H-indol-5-yl]-1H-benzoimidazole], the pKi is 5.89.
Next, `CC(C)(C)c1ccc2[nH]c(-c3ccc4c(c3)c(Cl)cn4CCCC3CCNCC3)nc2c1` [Example 34, 5-tert-Butyl-2-[3-chloro-1-(3-piperidin-4-yl-propyl)-1H-indol-5-yl]-1H-benzoimidazole]: 5.70.
Take `Cc1c(F)ccc2[nH]c(-c3cccc4c3ccn4CCCCC3CCNCC3)nc12` [Example 35, 5-Fluoro-4-methyl-2-[1-(4-piperidin-4-yl-butyl)-1H-indol-4-yl]-1H-benzoimidazole]: the negative-log Ki (pKi) was 6.17.
For `Clc1cccc2[nH]c(-c3cccc4c3ccn4CCCCC3CCNCC3)nc12` [Example 36, 4-Chloro-2-[1-(4-piperidin-4-yl-butyl)-1H-indol-4-yl]-1H-benzoimidazole], the pKi is 5.63.
Consider `Cc1cc(C)c2nc(-c3ccc4ccn(CCCCC5CCNCC5)c4c3)[nH]c2c1` [Example 37, 4,6-Dimethyl-2-[1-(4-piperidin-4-yl-butyl)-1H-indol-6-yl]-1H-benzoimidazole], for which the pKi is 5.65.
`Cc1c(F)ccc2[nH]c(-c3ccc4ccn(CCCCC5CCNCC5)c4c3)nc12` [Example 38, 5-Fluoro4-methyl-2-[1-(4-piperidin-4-yl-butyl)-1H-indol-6-yl]-1H-benzoimidazole]: the pKi is 5.94.
Next, `CN(C)Cc1cn(CCCCC2CCNCC2)c2ccc(-c3nc4cc(C(C)(C)C)ccc4[nH]3)cc12` [Example 39, [5-(5-tert-Butyl-1H-benzoimidazol-2-yl)-1-(4-piperidin-4-yl-butyl)-1H-indol-3-ylmethyl]-dimethyl-amine]: 5.54; `Cc1c(F)ccc2[nH]c(-c3ccc4c(c3)ncn4CCCC3CCN(C)CC3)nc12` [Example 40, 5-Fluoro-4-methyl-1′-[3-(1-methyl-piperidin-4-yl)-propyl]-1H,1′H-[2,5′]bibenzoimidazolyl]: 7.19; `Cc1c(F)ccc2[nH]c(-c3ccc4ncn(CCCC5CCN(C)CC5)c4c3)nc12` [Example 41, 5-Fluoro-4-methyl-3′-[3-(1-methyl-piperidin-4-yl)-propyl]-1H,3′H-[2,5′]bibenzoimidazolyl]: 6.40.
On to `Cc1cccc2[nH]c(-c3ccc4c(c3)ncn4CCCCC3CCN(C)CC3)nc12` [Example 42, 4-Methyl-1′-[4-(1-methyl-piperidin-4-yl)-butyl]-1H,1′H-[2.5′]bibenzoimidazolyl], for which the pKi was 5.70.
Turning to `Cc1cccc2[nH]c(-c3ccc4ncn(CCCCC5CCN(C)CC5)c4c3)nc12` [Example 43, 4-Methyl-3′-[4-(1-methyl-piperidin-4-yl)-butyl]-1H,3′H-[2,5′]bibenzoimidazolyl], the negative-log Ki (pKi) is 5.78.
As for `Cc1c(F)ccc2[nH]c(-c3ccc4c(c3)ncn4CCCCC3CCN(C)CC3)nc12` [Example 44, 5-Fluoro-4-methyl-1′-[4-(1-methyl-piperidin-4-yl)-butyl]-1H,1′H-[2.5′]bibenzoimidazolyl], the pKi was 5.52.
Regarding `Cc1c(F)ccc2[nH]c(-c3ccc4ncn(CCCCC5CCN(C)CC5)c4c3)nc12` [Example 45, 5-Fluoro-4-methyl-3′-[4-(1-methyl-piperidin-4-yl)-butyl]-1H,3′H-[2,5′]bibenzoimidazolyl], the pKi is 5.78.
For `Cc1c(F)ccc2[nH]c(-c3cnc4c(ccn4CCCC4CCN(C)CC4)c3)nc12` [Example 46, 5-Fluoro-4-methyl-2-{1-[3-(1-methyl-piperidin-4-yl)-propyl]-1H-pyrrolo[2,3-b]pyridin-5-yl}-1H-benzoimidazole], the pKi is 7.92.
For `Cc1ccc2[nH]c(-c3cnc4c(ccn4CCCC4CCN(C)CC4)c3)nc2c1C` [Example 47, 4,5-Dimethyl-2-{1-[3-(1-methyl-piperidin-4-yl)-propyl]-1H-pyrrolo[2,3-b]pyridin-5-yl}-1H-benzoimidazole] the value was 7.25.
Next, `CN1CCC(CCCn2ccc3cc(-c4nc5c(F)cc(F)cc5[nH]4)c(Cl)cc32)CC1` [Example 48, 2-{6-Chloro-1-[3-(1-methyl-piperidin-4-yl)-propyl]-1H-indol-5-yl}-4,6-difluoro-1H-benzoimidazole]: 5.99; `Cc1c(F)ccc2[nH]c(-c3cc4ccn(CCCC5CCNCC5)c4cc3Cl)nc12` [Example 49, 2-[6-Chloro-1-(3-piperidin-4-yl-propyl)-1H-indol-5-yl]-5-fluoro-4-methyl-1H-benzoimidazole]: 5.76; `Cc1c(F)ccc2[nH]c(-c3cc4ccn(CCCC5CCN(C)CC5)c4cc3Cl)nc12` [Example 50, 2-{6-Chloro-1-[3-(1-methyl-piperidin-4-yl)-propyl]-1H-indol-5-yl}-5-fluoro-4-methyl-1H-benzoimidazole]: 5.48.
Turning to `Cc1c(F)ccc2[nH]c(-c3ccc4c(ncn4CCCC4CCN(C)CC4)c3C)nc12` [Example 51, 5-Fluoro-4,4′-dimethyl-1′-[3-(1-methyl-piperidin-4-yl)-propyl]-1H,1′H-[2,5′]bibenzoimidazolyl], the pKi is 8.15.
Regarding `Cc1ccc2[nH]c(-c3ccc4c(ncn4CCCC4CCN(C)CC4)c3C)nc2c1C` [Example 52, 5,4′-Trimethyl-1′-[3-(1-methyl-piperidin-4-yl)-propyl]-1H,1′H-[2,5′]bibenzoimidazolyl], the pKi is 7.48.
With `Cc1cccc2[nH]c(-c3ccc4c(ncn4CCCC4CCN(C)CC4)c3C)nc12` [Example 53, 4,4′-Dimethyl-1′-[3-(1-methyl-piperidin-4-yl)-propyl]-1H,1′H-[2,5′]bibenzoimidazolyl], the pKi was 7.82.
On to `Cc1c(Cl)ccc2[nH]c(-c3ccc4c(ncn4CCCC4CCN(C)CC4)c3C)nc12` [Example 54, 5-Chloro-4,4′-dimethyl-1′-[3-(1-methyl-piperidin-4-yl)-propyl]-1H ,1′H-[2,5′]bibenzoimidazolyl], for which the negative logarithm of the Ki (pKi) is 9.00.
Regarding `Cc1cc(F)cc2[nH]c(-c3ccc4c(ncn4CCCC4CCN(C)CC4)c3C)nc12` [Example 55, 6-Fluoro-4,4′-dimethyl-1′-[3-(1-methyl-piperidin-4-yl)-proyl]-1H,1′H-[2,5′]bibenzoimidazolyl], the negative-log Ki (pKi) was 8.40.
Next, `Cc1ccc2[nH]c(-c3ccc4c(c3)CCN4CCCC3CCNCC3)nc2c1C` [Example 56, 4,5-Dimethyl-2-[1-(3-piperidin-4-yl-propyl)-2,3-dihydro-1H-indol-5-yl]-1H-benzoimidazole]: 5.72; `Cc1cc(C)c2nc(-c3ccc4c(c3C)CCN4CCCC3CCN(C)CC3)[nH]c2c1` [Example 57, 4,6-Dimethyl-2-{4-methyl-1-[3-(1-methyl-piperidin-4-yl)-propyl]-2,3-dihydro-1H-indol-5-yl}-1H-benzoimidazole]: 8.30; `Cc1c(-c2nc3cc(Cl)ccc3[nH]2)ccc2c1CCN2CCCC1CCN(C)CC1` [Example 58, 5-Chloro-2-{4-methyl-1-[3-(1-methyl-piperidin-4-yl)-propyl]-2,3-dihydro-1H-indol-5-yl}-1H-benzoimidazole]: 7.72.
Next, `Cc1c(-c2nc3c(C)cc(F)cc3[nH]2)ccc2c1CCN2CCCC1CCN(C)CC1` [Example 59, 6-Fluoro-4-methyl-2-{4-methyl-1-[3-(1-methyl-piperidin-4-yl)-propyl]-2,3-dihydro-1H-dihydro-1H-indol-5-yl}-1H-benzoimidazole]: 7.74; `Cc1nc2c(ccc3[nH]c(-c4ccc5c(c4C)CCN5CCCC4CCN(C)CC4)nc32)s1` [Example 60, 2-Methyl-7-{4-methyl-1-[3-(1-methyl-piperidin-4-yl)-propyl]-2,3-dihydro-1H-indol-5-yl}-6H-imidazo[4′,5′:3,4]benzo[2,1-d]thiazole]: 7.04; `Cc1cc(C)c2nc(-c3ccc4c(ccn4CCCC4CCN(C)CC4)c3)[nH]c2c1` [Example 61]: 6.87.
For the molecule `Cc1ccc2[nH]c(-c3ccc4c(ccn4CCCN4CCNCC4)c3)nc2c1C` [Example 62, 4,5-Dimethyl-2-[1-(3-piperazin-1-yl-propyl)-1H-indol-5-yl]-1H-benzoimidazole], the negative logarithm of the Ki (pKi) was 5.88.
On to `CC(C)(C)c1ccc2[nH]c(-c3ccc4c(ccn4CCCN4CCNCC4)c3)nc2c1` [Example 63, 5-tert-Butyl-2-[1-(3-piperazin-1-yl-propyl)-1H-indol-5-yl]-1H-benzoimidazole], for which the pKi is 5.78.
As for `Clc1ccc2[nH]c(-c3ccc4c(ccn4CCCN4CCNCC4)c3)nc2c1` [Example 64, 5-Chloro-2-[1-(3-piperazin-1-yl-propyl)-1H-indol-5-yl]-1H-benzoimidazole], the negative logarithm of the Ki (pKi) was 5.82.
As to `CN1CCN(CCCn2ccc3cc(-c4nc5cc(Cl)ccc5[nH]4)ccc32)CC1` [Example 65, 5-Chloro-2-{1-[3-(4-methyl-piperazin-1-yl)-propyl]-1H-indol-5-yl}-1H-benzoimidazole], the negative logarithm of the Ki (pKi) was 6.84.
As for `Cc1cccc2[nH]c(-c3cccc4c3ccn4CCCCC3CCNCC3)nc12` [Example 66, 4-Methyl-2-[1-(4-piperidin-4-yl-butyl)-1H-indol-4-yl]-1H-benzoimidazole], the pKi is 5.93.

A word on the pKi: it is −log10 of the Ki, conventionally taken in molar units.
